This passage reports Kd and IC50 results from patent US20230406829A1, “Heterocyclic Compound and Preparation Method and Use Thereof” (SYNTRON (JIANGSU) PHARMACEUTICAL TECHNOLOGY CO., LTD., priority 2020, published 2023).

The structures appear in SMILES notation.

The target in the first test is T1, VISTA protein modified by glycosylation (Homo sapiens, UniProt Q9H7M9).
T1 sequence (Q9H7M9 33-311): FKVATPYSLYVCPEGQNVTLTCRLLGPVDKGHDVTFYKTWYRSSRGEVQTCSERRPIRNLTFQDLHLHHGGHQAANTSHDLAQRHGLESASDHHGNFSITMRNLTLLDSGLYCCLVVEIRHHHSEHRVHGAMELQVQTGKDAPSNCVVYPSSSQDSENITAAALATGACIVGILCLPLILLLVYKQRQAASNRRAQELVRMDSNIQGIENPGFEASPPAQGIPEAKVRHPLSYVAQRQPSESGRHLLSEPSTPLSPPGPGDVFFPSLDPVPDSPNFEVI
Briefly: Binding ability of compounds to VISTA protein (Biacore S200, CM5 chip). The conditions noted are these: compound diluted in 1.05*PBS-P, fitted. The text has this: Ability ability of compounds to VISTA protein • (I) Experimental Equipment and Reagents • 1. The machine model used in this experiment is: Biacore S200. • 2. S-series CM5 chip. […] Goods number: BR-1000-50, the purchase place is GE Healthcare. • 4.
(SPR reads the build-up and loss of mass on a sensor chip optically.)
Usually Kd stands for the free concentration of one partner at which half of the binding sites on the other are occupied at equilibrium, for simple one-to-one binding. A higher Kd goes with lower affinity. In turn, `CC(=O)NCCNCc1cccc(-c2nc3c(C)c(-c4ccccc4)ccc3[nH]2)c1` [Compound 1] gave an equilibrium dissociation constant (Kd) of 153 nM.
`Cc1c(-c2ccccc2)ccc2nc(-c3cccc(CNCCN)c3)[nH]c12` [Compound 7] returned a Kd of 461 nM.
The compound `CC(=O)NCCNCc1ccc(-c2nc3ccc(-c4ccccc4)c(C)c3[nH]2)cc1` [Compound 10] had a Kd of 338 nM.

The target in a further test is T2, recombinant human VISTA protein (Homo sapiens, UniProt Q9H7M9).
T2 construct: purchased R & D Systems 7126-B7
T2 sequence (Q9H7M9 with tags, fused parts or gaps limits assumed): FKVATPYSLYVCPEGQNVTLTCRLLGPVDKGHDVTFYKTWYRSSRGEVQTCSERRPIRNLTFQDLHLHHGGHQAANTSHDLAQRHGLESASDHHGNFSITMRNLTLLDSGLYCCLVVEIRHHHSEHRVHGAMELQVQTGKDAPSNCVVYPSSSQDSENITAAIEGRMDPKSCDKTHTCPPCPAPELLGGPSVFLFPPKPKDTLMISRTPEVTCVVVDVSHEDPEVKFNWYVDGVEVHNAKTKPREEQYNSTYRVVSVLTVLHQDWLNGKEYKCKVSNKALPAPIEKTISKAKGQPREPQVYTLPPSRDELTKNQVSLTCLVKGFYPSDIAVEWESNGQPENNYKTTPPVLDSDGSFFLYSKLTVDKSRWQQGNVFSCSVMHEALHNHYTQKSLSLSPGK
Briefly: Inhibition of VISTA interaction: rescue of IFN-γ release in human PBMC (ELISA). In kind it is cell-based. The conditions noted are these: 72 h, read-out: IC50 (VISTA interaction inhibitory activity). On the procedure: • 2. Determination of the inhibition effect of the compounds against VISTA interaction: • (1) Experimental Equipment and Reagents • 1. […] SpectraMax i3X Multifunction microplate reader (Molecular Device) • 3. […] Experimental procedure: • 1.1 Recombinant human VISTA (2.5 μg/ml) and anti-human CD3 antibody (2.5 μg/ml) were added to 96-well plates and stored in 4 C overnight. • 1.2 The next day, the anti-human VISTA antibody was added to the co-incubation for 30 min. Thereafter, cells were washed with 1*PBS and test compounds were added for 30 min. […] At 37 C, 5% CO2Below the conditions, the incubation was continued for 72 h. • 1.3 After separation by centrifugation at 4 C, 200 g*5 min, the supernatant was collected.
For orientation: ELISA stands for enzyme-linked immunosorbent assay.
As a reminder, the IC50 is the point on the concentration scale where inhibition reaches its midpoint. Consider `CC(=O)NCCNCc1cccc(-c2nc3c(Cl)c(-c4ccccc4)ccc3[nH]2)c1` [Compound 17], for which the 50% inhibitory concentration (IC50) was in the range of 1 to 100 nM.
On the same count and under the same terms, next, `Cc1c(-c2ccccc2)ccc2[nH]c(-c3cccc(OCc4cccnc4)c3)nc12` [Compound 21]: 100 to 1000 nM.
Still for that read-out and setting: then `CC(=O)NCCNCc1cccc(-c2nc3c(Br)c(-c4ccccc4)ccc3[nH]2)c1` [Compound 16], with 1 to 100 nM; and `CC(=O)NCCNCc1cccc(-c2cc3c(C)c(-c4ccccc4)ccn3c2)c1` [Compound 44], with 100 to 1000 nM.
Same read-out and setting: then `CC(=O)NCCNCc1cccc(-c2nc3c(CO)c(-c4ccccc4)ccc3[nH]2)c1` [Compound 58], with 100 to 1000 nM; and `CC(=O)NCCNCc1cccc(-c2nc3c(F)c(-c4ccccc4)ccc3[nH]2)c1` [Compound 36], with 1 to 100 nM.
Take `CC(=O)NCCNCc1cccc(-c2cn3ncc(-c4ccccc4)c(C)c3n2)c1` [Compound 48]: the IC50 was 100 to 1000 nM.
Still for that read-out and setting: next, `CC(=O)NCCNCc1cccc(-c2cc3ccncn3c2)c1` [Compound 45]: 1 to 100 nM.
On the same count and under the same terms, next, `Cc1c(-c2ccccc2)ccc2[nH]c(-c3cccc(S(=O)(=O)NCCO)c3)nc12` [Compound 41]: 100 to 1000 nM; `CC(=O)NCCNCc1cccc(-c2nc3ccccc3[nH]2)c1` [Compound 29]: 1 to 100 nM.
Still for that read-out and setting: then `Cc1c(-c2ccccc2)ccc2[nH]c(-c3ccc(CNCCO)c(OCc4cccnc4)c3)nc12` [Compound 22], with 1 to 100 nM.
Consider `CCc1c(-c2ccccc2)ccc2[nH]c(-c3cccc(CNCCNC(C)=O)c3)nc12` [Compound 56], for which the IC50 lay in the range of 1 to 100 nM.
In the case of `Cc1c(-c2ccccc2)ccc2[nH]c(-c3cccc(COCCN)c3)nc12` [Compound 40], the IC50 was in the range of 100 to 1000 nM.
The same measure, in the same setting: next, `CC(=O)NCCNCc1cccc(-c2nc3c(C#N)c(-c4ccccc4)ccc3[nH]2)c1` [Compound 57]: 1 to 100 nM; `CC(=O)NCCNCc1cccc(-c2nc3c(C)c(-c4ccccc4)ccc3[nH]2)c1` [Compound 1]: 1 to 100 nM.
On the same count and under the same terms, then `COc1cccc(-c2nc3c(C)c(-c4ccccc4)ccc3[nH]2)c1` [Compound 19], with 100 to 1000 nM; and `Cc1c(-c2ccccc2)ccc2[nH]c(-c3ccc(CN4CCCC[C@H]4C(=O)O)cc3)nc12` [Compound 13], with 1 to 100 nM.
On the same count and under the same terms, then `Cc1c(-c2ccccc2)ccc2[nH]c(-c3cccc(CNC[C@@H](O)CC(=O)O)c3)nc12` [Compound 6], with 1 to 100 nM; and `CC(=O)NCCNCc1cccc(-c2nc3cc(C#N)ccc3[nH]2)c1` [Compound 64], with 1 to 100 nM; and `COc1cc(-c2nc3c(C)c(-c4ccccc4)ccc3[nH]2)ccc1CN1CC[C@@H](O)C1` [Compound 23], with 1 to 100 nM.
Take `CCCOC(=O)c1cccc(-c2nc3c(C)c(-c4ccccc4)ccc3[nH]2)c1` [Compound 42]: the 50% inhibitory concentration (IC50) lay within 100 to 1000 nM.
The same measure, in the same setting: then `Cc1c(-c2ccccc2)ccc2[nH]c(-c3cccc(CNC[C@@H]4CCNC4=O)c3)nc12` [Compound 9], with 1 to 100 nM.
The same measure, in the same setting: next, `CC(=O)NCCNCc1cccc(-c2nc3c(C)c(-c4ccc5c(c4)OCCO5)ccc3[nH]2)c1` [Compound 18]: 1 to 100 nM; `CC(=O)NCCNCc1cccc(-c2nc3cc(-c4ccco4)ccc3[nH]2)c1` [Compound 62]: 100 to 1000 nM; `Cc1c(-c2ccccc2)ccc2[nH]c(-c3cccc(OCCNCCO)c3)nc12` [Compound 39]: 100 to 1000 nM.
The same measure, in the same setting: then `Cc1c(-c2ccccc2)ccc2[nH]c(-c3ccc(CNC[C@@H](O)CC(=O)O)cc3)nc12` [Compound 15], with 1 to 100 nM.
For `Cc1c(-c2ccccc2)ccc2nc(-c3cccc(CNCCO)c3)cn12` [Compound 27], the half-maximal inhibitory concentration (IC50) lay within 1 to 100 nM.
Still for that read-out and setting: then `Cc1c(-c2ccccc2)ccc2[nH]c(-c3cccc(C(=O)O)c3)nc12` [Compound 31], with 1 to 100 nM; and `CC(=O)NCCNCc1cccc(C2=CC3C=CC(c4ccccc4)=NC3O2)c1` (centres unmarked) [Compound 51], with 100 to 1000 nM.
On the same count and under the same terms, then `CC(=O)NCCNCc1cccc(-c2nc3cc(OCc4ccccc4)ccc3[nH]2)c1` [Compound 63], with 100 to 1000 nM; and `COc1cc(-c2nc3c(C)c(-c4ccccc4)ccc3[nH]2)ccc1CNC[C@@H]1CCC(=O)N1` [Compound 24], with 1 to 100 nM.
The same measure, in the same setting: next, `CC(=O)NCCNCc1cccc(-c2nc3c(C)c(-c4ccccc4)ccn3n2)c1` [Compound 50]: 100 to 1000 nM; `COc1ccc2[nH]c(-c3cccc(CNCCNC(C)=O)c3)nc2c1` [Compound 35]: 100 to 1000 nM; `COc1c(-c2ccccc2)ccc2[nH]c(-c3cccc(CNCCNC(C)=O)c3)nc12` [Compound 55]: 1 to 100 nM.
In the case of `CC(=O)NCCNCc1cccc(-c2nc3cc(C)ccc3[nH]2)c1` [Compound 34], the IC50 was in the range of 1 to 100 nM.
On the same count and under the same terms, then `CC(=O)NCCNCc1cccc(-c2cn3ccc(-c4ccccc4)nc3n2)c1` [Compound 47], with 1 to 100 nM.
Regarding `Cc1c(-c2ccccc2)ccc2nc(-c3cccc(CNCC(=O)O)c3)[nH]c12` [Compound 2], the IC50 is 100 to 1000 nM.
Turning to `CC(=O)NCCNCc1cccc(-c2nc3cc(CO)ccn3n2)c1` [Compound 49], the concentration for half-maximal inhibition (IC50) fell in the range of 100 to 1000 nM.
The same measure, in the same setting: then `CC(=O)NCCNCc1cccc(-c2nc3cc(-c4ccccc4)ccc3[nH]2)c1` [Compound 32], with 1 to 100 nM; and `CC(=O)NCCNCc1cccc(C2=NC3C=CC(c4ccccc4)=C(C)C3S2)c1` (centres unmarked) [Compound 53], with 100 to 1000 nM.
On to `CC(=O)NCCNCc1cccc(-c2nc3c(O)c(O)ccc3[nH]2)c1` [Compound 60], for which the IC50 is 1 to 100 nM.
As to `CC(=O)NCCNCc1cccc(-c2nc3c(C(F)(F)F)c(-c4ccccc4)ccc3[nH]2)c1` [Compound 37], the IC50 is 100 to 1000 nM.
For `CC(=O)NCCNCc1cccc(-c2nc3c(O)c(-c4ccccc4)ccc3[nH]2)c1` [Compound 54], the IC50 fell in the range of 100 to 1000 nM.
For the compound `CC(=O)NCCNC(=O)c1cccc(-c2nc3c(C)c(-c4ccccc4)ccc3[nH]2)c1` [Compound 30], the IC50 fell in the range of 1 to 100 nM.
For the compound `Cc1c(-c2ccccc2)ccc2[nH]c(-c3cccc(CN4CC[C@@H](O)C4)c3)nc12` [Compound 8], the IC50 lay within 100 to 1000 nM.
In the case of `Cc1c(-c2ccccc2)ccc2[nH]c(-c3ccc(CN[C@H](CO)C(=O)O)cc3)nc12` [Compound 14], the IC50 was 100 to 1000 nM.
Still for that read-out and setting: then `CC(=O)NCCNCc1ccc(-c2cn3c(C)c(-c4ccccc4)ccc3n2)cc1` [Compound 26], with 100 to 1000 nM; and `COc1cc2cc(-c3cccc(CNCCNC(C)=O)c3)cn2cn1` [Compound 46], with 1 to 100 nM; and `CC(=O)NCCNCc1cccc(-c2nc3c(O)cccc3[nH]2)c1` [Compound 59], with 1 to 100 nM.
On the same count and under the same terms, then `Cc1c(-c2ccccc2)ccc2[nH]c(-c3cccc(C(=O)NCCO)c3)nc12` [Compound 38], with 1 to 100 nM.
As to `CC(=O)NCCNCc1cccc(C2=NC3C=CC(c4ccccc4)=C(C)C3O2)c1` (centres unmarked) [Compound 52], the IC50 fell in the range of 100 to 1000 nM.
Still for that read-out and setting: then `Cc1c(-c2ccccc2)ccc2nc(-c3ccc(CNCCO)cc3)cn12` [Compound 25], with 100 to 1000 nM; and `CC(=O)NCCNCc1cccc(-c2nc3ccc(Br)c(C)c3[nH]2)c1` [Compound 28], with 1 to 100 nM; and `Cc1c(-c2ccccc2)ccc2[nH]c(-c3cccc(CN4CCCC[C@H]4C(=O)O)c3)nc12` [Compound 4], with 1 to 100 nM.
Same read-out and setting: then `CC(=O)NCCNCc1cccc(-c2cc3ccccn3c2)c1` [Compound 43], with 100 to 1000 nM; and `Cc1c(-c2ccccc2)ccc2nc(-c3ccc(CNCCO)cc3)[nH]c12` [Compound 12], with 100 to 1000 nM; and `Cc1c(-c2ccccc2)ccc2nc(-c3cccc(CNCCN)c3)[nH]c12` [Compound 7], with 1 to 100 nM.
The same measure, in the same setting: then `CC(=O)NCCNCc1cccc(-c2nc3c4c(ccc3[nH]2)OCCO4)c1` [Compound 61], with 100 to 1000 nM.
Take `Cc1c(-c2ccccc2)ccc2[nH]c(-c3cccc(OCc4ccccc4)c3)nc12` [Compound 20]: the IC50 was in the range of 1 to 100 nM.
On the same count and under the same terms, then `Cc1c(-c2ccccc2)ccc2[nH]c(-c3ccc(CNCC(=O)O)cc3)nc12` [Compound 11], with 1 to 100 nM; and `Cc1c(-c2ccccc2)ccc2[nH]c(-c3cccc(CN[C@H](CO)C(=O)O)c3)nc12` [Compound 5], with 1 to 100 nM.
In the case of `CC(=O)NCCNCc1ccc(-c2nc3ccc(-c4ccccc4)c(C)c3[nH]2)cc1` [Compound 10], the IC50 lay within 100 to 1000 nM.
